Values quoted from earlier work, collected in patent US20200080027A1, “ADVANCED NOVEL ECO-FRIENDLY COMPOSITIONS” (priority 2015, published 2020).
Values belong to the molecule of their own block, whether it stands above or below them.

Tests used:
[1] = skin contact
human = human consumption
normal volunteers = settings: 15 g/day for 10 days, 18 normal volunteers

Molecule: [K+].[OH-] [Potassium hydroxide]
concentration of solution that is corrosive [1]: higher than 2%

Molecule: C/C=C/C=C/C(=O)[O-].[K+] [Potassium sorbate]
solubility in water (at 20° C.): 58.2% | maximum acceptable daily intake (human): 25 mg/kg | genotoxicity / mutagenicity in vitro (human blood cells): both genotoxic and mutagenic | carcinogenic effects (rats): not been found to have any carcinogenic effects

Molecule: O=C([O-])c1ccccc1.[Na+] [Sodium benzoate]
doses with no adverse effects in humans (humans): 647-825 mg/kg of body weight per day

water solubility: insoluble in water
Molecule: Span 80

Molecule: Xanthan gum
laxative effect (normal volunteers): highly efficient laxative
